# Results published in patent US9556437B2, “FAT1 gene in cancer and inflammation” (DEPARTMENT OF BIOTECHNOLOGY (DBT), priority 2012, dated 2017).
# Experiments:
# [1] = tested on: U87MG cells; assay: In vitro Scratch Assay of cell migration; assay type: cell-based, human
# Protocol: FIGS. 14A to 14D: Effect of NS-398 and FAT1 knockdown simultaneously on Cell Migration by In-vitro Scratch Assay. The in vitro Scratch Assay was performed at 72 hours after culturing cells as follows: At Day 0, 5,000 U87MG cells are plated per well of a 96 well plate. […] (C) Assay of cell migration by the Modified Boyden Chamber Assay under conditions of normoxia and hypoxia. (D) Quantitation of data from (C).
# The Scratch Assay is performed at 72 hours after treatment. A scratch is made on the culture surface using a sterile 10 μl tip and cells were allowed to grow. Images were captured after every 3 hrs to monitor the closure of the wound in the culture surface for next 24 hrs.
# [2] = tested on: colorectal and lung carcinoma cell lines; conditions: Elder 1997, Liu 1998; cited from earlier work
# [3] = tested on: colon, esophageal and pancreatic carcinoma cell lines; conditions: Tsujii 1998, Zimmermann 1999, Molina 1999; cited from earlier work
# [4] = tested on: COX-2 promoter; assay: COX-2 promoter luciferase assay; assay type: cell-based, human; conditions: U87MG
# Protocol: AP-1 and COX-2 Promoter Luciferase Assay: U87MG cells (40000 cells/well) were plated in 6-well plates in triplicate on day zero. On day 1, cells were transfected with siFAT1 and siControl. On day 2 cells were transiently transfected with 4×AP-1-luciferase reporter plasmids as described previously. Cells were transfected with 1 μg of AP-17× luciferase reporter plasmid, along with 50 ng of pRL-TK (Renilla luciferase) control plasmid using LIPOFECTAMINE2000 as the transfection reagent. After 48 hrs, the cells were lysed by 1× passive-lysis-buffer (Promega, Madison, Wis., USA) and assayed for luciferase activity as previously described. For COX-2 luciferase assay U87MG cells were transfected with siFAT1 and siControl on day 1 and after 4 hrs incubation were treated with 10 μM SR11302. On day2 cells were transiently transfected with COX-2 reporter plasmid and again treated with 10 μM SR11302. After 48 hrs, the cells were assayed for luciferase activity.
# [5] = tested on: U87MG cells; assay: Toxicity of SR11302 to cells; assay type: cell-based, human; conditions: 10 μM
# Protocol: FIG. 11: Dose response curve of SR11302; U87MG cells were treated with increasing concentration of SR11302 from 0.1 μM to 10 μM.
dose response of COX-2 luciferase activity ([4]; 0.1 μM to 10 μM),"decrease in COX-2 luciferase activity ([4]; vs siControl+DMSO, SR11302 10 μM, 48 hrs)",SMILES,inhibition of cell migration ([1]; Scratch Assay at 72 hours after treatment),effect on migration under hypoxic versus normoxic culture ([1]; hypoxic conditions),"migration ability of cells ([1]; scratch and modified Boyden chamber assays, normoxic or hypoxic conditions (FIG. 14))",apoptosis [2],proliferation [2],growth of carcinoma cell lines [3],toxicity to the cells [5]
,,CS(=O)(=O)Nc1ccc([N+](=O)[O-])cc1OC1CCCCC1 [NS398],about 70%,more pronounced,reduced,induce apoptosis,inhibit proliferation,growth-inhibitory effects,
dose dependent decrease,5 fold,CC1=C(/C=C/C(=C/C=C/C(C)=C/C(=O)O)c2ccc(C)cc2)C(C)(C)CCC1 [SR11302],,,,,,,No toxicity
